Measured values published in patent US9457022B2, “Methods and compositions for treating or preventing symptoms of hormonal variations” (priority 2010, dated 2016).
Where two headings read alike, the source gives them in different places.

Key:
[1] = system: hot flashes, night sweats and other menopausal symptoms; conditions: for Impact on reducing the menopausal symptoms (hot flashes, night sweats): 2009, patient on Tamoxifen, Clonidine given with Vitamin E
From the text: One of ordinary skill in the art would appreciate that this specific example is not intended to limit the scope of the invention.
In September of 1993, a person who had been experiencing severe menstrual cycles required a partial hysterectomy. […] Approximately a year after surgery, they were placed on Cenestin™ (a kind of hormone replacement therapy, i.e., “HRT”).
At this time, the patient began taking dosages of Wellbutrin™ and receiving another hormone replacement therapy of estrogen and testosterone to treat the hot flashes, night sweats and other menopausal symptoms.
In November of 2008, the patient was diagnosed with Stage 2 breast cancer and the HRT was discontinued immediately. Subsequently, the patient underwent a lumpectomy and the removal of fourteen lymph nodes (one tested positive).
In December 2008, the patient went through an intense treatment of chemotherapy which lasted until April 2009. At this time, a less intense chemotherapy treatment was continued until November 2009. The patient also received radiation therapy from April 2009 until June 2009. At the end of the radiation therapy, the patient was started on a regimen of Tamoxifen™.
Clonidine™ is a direct-acting α2 adrenergic agonist that is used to treat several medical conditions. […] Both the Clonidine™ and the Wellbutrin™ were discontinued in June 2009.
It was originally developed for the treatment of epilepsy, and currently, gabapentin is widely used to relieve pain, especially neuropathic pain. […] At this time, the patient was treated with Effexor™ (generic name Venlafaxine), a medication which is used primarily for the treatment of major depression, generalized anxiety disorder, social anxiety disorder, obsessive—compulsive disorder, panic disorder, and menopausal hot flashes in adults.
At this time, the patient began Wellbutrin™ again to treat the hot flashes, night sweats and other menopausal symptoms.
The dosage continued and remained the same for another 5 days.

hot flashes [2] = assay: Dextromethorphan HBr in menopausal women with no breast cancer history; severity and frequency of hot flashes; format: in vivo, human; conditions: 15 mg in the morning and 15 mg in the evening; summary of Table 1
Experimental: The dosage given in these test cases was 15 mg in the morning and 15 mg in the evening of Dextromethorphan, e.g., DextromethorphanHBr. The decrease in the symptoms of hormonal variation was noted by assessing the severity and frequency of hot flashes.

hot flashes [3] = conditions: cited from earlier work
hot flashes [4] = conditions: men; double blind, cross over study; cited from earlier work

## COc1ccc2c(c1)[C@]13CCCC[C@@H]1[C@H](C2)N(C)CC3 [Dextromethorphan HBr]
[1]; 30 mg per day (15 mg every 12 hours), by the third day
  Hot flashes, night sweats and other menopausal symptoms: totally gone
[1]; 30 mg per day (15 mg every 12 hours), two days after starting
  Occurrence of hot flashes, night sweats and other menopausal symptoms: reduced significantly
[1]; after 8 days of 30 mg per day
  Time to reoccurrence of menopausal symptoms after discontinuation: ≤ 24 h
[1]; continuing Dextromethorphan HBr alone
  Hot flashes, night sweats and menopausal symptoms after Wellbutrin was discontinued: did not reoccur
[1]; human, in vivo
  Time to elimination of symptoms after again commencing treatment: ≤ 24 h
Hot flashes [2]
  Women who no longer had hot flashes when on Dextromethorphan: four out of the five

## CNCCC(Oc1ccc(C(F)(F)F)cc1)c1ccccc1 (stereo not drawn) [Fluoxetine]
Hot flashes [3]; 20 mg/day, placebo 36%
  Reduction in hot-flash scores: 50%

## CC/C(=C(\c1ccccc1)c1ccc(OCCN(C)C)cc1)c1ccccc1 [Tamoxifen™, tamoxifen]
[1]; human, in vivo
  Hot flashes, night sweats and other menopausal symptoms since commencing treatment: increased in intensity

## CC(NC(C)(C)C)C(=O)c1cccc(Cl)c1 (stereo not drawn) [Wellbutrin™, bupropian]
[1]
  Impact on reducing the menopausal symptoms (hot flashes, night sweats): no impact
[1]; Wellbutrin together with hormone replacement therapy of estrogen and testosterone, from 2006
  Frequency and intensity of hot flashes, night sweats and other menopausal symptoms (patient report): markedly reduced

## Clc1cccc(Cl)c1N=C1NCCN1 [clonidine]
[1]
  Impact on reducing the menopausal symptoms (hot flashes, night sweats): no impact
Hot flashes [3]; randomized clinical trials
  Adverse effects (dry mouth, dizziness, blurred vision): common
  Efficacy versus placebo in preventing hot flashes: moderately more efficacious than placebo
Hot flashes [3]; women treated with clonidine
  Decrease of hot flash frequency greater than that seen with placebo: 10-15%
Hot flashes [4]
  Difference from placebo effect in self-reported hot flash frequency: not statistically significant

## NCC1(CC(=O)O)CCCCC1 [gabapentin]
[1]
  Impact on reducing the menopausal symptoms (hot flashes, night sweats): no impact
Hot flashes [3]; pilot trials
  Reduction of incidence of hot flashes: 42%-70%

## CC(=O)O[C@]1(C(C)=O)CC[C@H]2[C@@H]3C=C(C)C4=CC(=O)CC[C@]4(C)[C@H]3CC[C@@]21C [megestrol acetate]
Hot flashes [3]; men and women, placebo 20%
  Reduction in self-reported hot flash frequency: ~80%

## COc1ccc(C(CN(C)C)C2(O)CCCCC2)cc1 (stereo not drawn) [venlafaxine]
[1]
  Impact on reducing the menopausal symptoms (hot flashes, night sweats): no impact
Hot flashes [3]; randomized clinical trial, low dose (37.5 mg/day), placebo 27%
  Reduction in hot-flash scores: 37%
Hot flashes [3]; randomized clinical trial, moderate and high doses (75 and 150 mg/day), statistically significant
  Reduction in hot-flash scores: 61%
